Laboratory results reported in patent US20070173462A1, “Treatment of diseases associated with the use of antibiotics” (Optimer Pharmaceuticals, Inc., priority 2004, published 2007).
In brackets after ≈: the same amount, converted by molar mass.

Columns and labels:
Assay type in all cases: cell-based
[1] = test system: Anaerobic Gram positive cocci; test: MIC, ATCC laboratory strains (NCCLS guidelines); settings: n=4
Description: (§1) The activity of Compound I was tested against laboratory strains of different species of bacteria using NCCLS antimicrobial susceptibility testing guidelines. […] Including MRSA and Enterococcus sp. Including VRE (Table. 2).

Bacillus sp. = test: MIC, ATCC laboratory strains (NCCLS guidelines); settings: n=2
Description: as §1

Bacteroides sp. = test: MIC, ATCC laboratory strains (NCCLS guidelines); settings: n=5
Description: as §1

Citrobacter sp. = test: MIC, ATCC laboratory strains (NCCLS guidelines); settings: n=2
Description: as §1

Clostridium sp. = test: MIC, ATCC laboratory strains (NCCLS guidelines)
Description: as §1

Enterobacteriaceae. = test: MIC, ATCC laboratory strains (NCCLS guidelines); settings: n=10
Description: as §1

[2] = test system: Enterococcus sp. (incl. VRE); test: MIC, ATCC laboratory strains (NCCLS guidelines)
Description: as §1

Fusobacterium sp. = test: MIC, ATCC laboratory strains (NCCLS guidelines); settings: n=1
Description: as §1

Helicobacter sp. = test: MIC, ATCC laboratory strains (NCCLS guidelines); settings: n=1
Description: as §1

Micrococcus sp. = test: MIC, ATCC laboratory strains (NCCLS guidelines)
Description: as §1

Moraxella sp. = test: MIC, ATCC laboratory strains (NCCLS guidelines); settings: n=2, in µg/mL
Description: as §1

[3] = test system: Staphylococcus sp. (incl. MRSA); test: MIC, ATCC laboratory strains (NCCLS guidelines)
Description: as §1

Streptococcus sp. [4] = test: MIC, ATCC laboratory strains (NCCLS guidelines); settings: n=5, in µg/mL
Description: as §1

Bacteroides fragilis = test: MIC, clinical isolates (Table 3); settings: n=69
Description: (§2) Compound I was additionally tested against anaerobic clinical isolates and against aerobic bacteria. […] The compound was also active against clinical strains of Staphylococcus sp. and Enterococcus sp.

Enterococcus sp. [5] = test: MIC, clinical isolates (Table 3)
Description: as §2

Propionibacterium sp. = test: MIC, clinical isolates (Table 3); settings: n=16
Description: as §2

Pseudomonas sp. = test: MIC, clinical isolates (Table 3); settings: n=15
Description: as §2

Streptococcus sp. [6] = test: MIC, clinical isolates (Table 3); settings: n=10
Description: as §2

C. clostridioforme = test: organism not typed; settings: clinical isolates, n=5
C. innocuum = test: microbe, parasite or virus in culture; settings: [Clostridium] innocuum; clinical isolates, n=9
C. paraputrificum = test: microbe, parasite or virus in culture; settings: clinical isolates, n=10
C. perfringens = test: microbe, parasite or virus in culture
C. ramosum = test: microbe, parasite or virus in culture; settings: Thomasclavelia ramosa; clinical isolates, n=10
Other Clostridium sp. = test: microbe, parasite or virus in culture; settings: Clostridium; clinical isolates, n=11
[7] = test system: Bacteroides fragilis group; test: microbe, parasite or virus in culture; settings: Bacteroides fragilis; clinical gastrointestinal isolates, n=54
Veillonella sp. = test: microbe, parasite or virus in culture; settings: clinical gastrointestinal isolates, n=10
[8] = test system: Other anaerobic Gram negative rods; test: organism not typed; settings: clinical gastrointestinal isolates, n=51
[9] = test system: Non-spore forming Gram positive rods; test: organism not typed; settings: clinical gastrointestinal isolates, n=64
[10] = test system: Anaerobic Gram positive cocci; test: organism not typed; settings: clinical gastrointestinal isolates, n=49
Streptococcus sp. [11] = test: microbe, parasite or virus in culture; settings: clinical gastrointestinal isolates, n=9
Klebsiella sp. = test: microbe, parasite or virus in culture; settings: clinical gastrointestinal isolates, n=10
Proteus mirabilis = test: microbe, parasite or virus in culture; settings: clinical gastrointestinal isolates, n=10
Enterococcus sp. [12] = test: microbe, parasite or virus in culture; settings: clinical gastrointestinal isolates, n=22
Stephylococcus sp. = test: organism not typed; settings: clinical gastrointestinal isolates, n=19
[13] = test system: C. difficile, C. perfringens and C. sordellii; test: organism not typed

Compound: CCc1c(Cl)c(O)c(Cl)c(O)c1C(=O)O[C@H]1[C@H](O)[C@H](OC)[C@H](OC/C2=C\C=C\C[C@H](O)/C(C)=C/[C@H](CC)C(O[C@@H]3OC(C)(C)[C@@H](OC(=O)C(C)C)[C@H](O)[C@@H]3O)/C(C)=C/C(C)=C/C[C@@H](C(C)O)OC2=O)O[C@@H]1C (some centres unmarked) [Compound I]
- Range (MIC) [1]: ≦0.06-1
- Range (MIC) (Bacillus sp.): 1 µg/mL
- Range (MIC) (Bacteroides sp.): > 32 µg/mL
- Range (MIC) (Citrobacter sp.): > 64 µg/mL
- Range (MIC) (Clostridium sp.; ATCC laboratory strains, n=4): ≦0.015-0.0625
- activity (in words) (Clostridium sp.; laboratory strains): excellent activity
- Range (MIC) (Enterobacteriaceae.): > 32 µg/mL
- Range (MIC) ([2]; ATCC laboratory strains, n=4): 4 µg/mL
- activity (in words) ([2]; laboratory strains, including VRE): moderate activity
- Range (MIC) (Fusobacterium sp.): > 32 µg/mL
- Range (MIC) (Helicobacter sp.): > 32 µg/mL
- Range (MIC) (Micrococcus sp.; ATCC laboratory strains, n=4): ≦0.125
- activity (in words) (Micrococcus sp.; laboratory strains): excellent activity
- Range (MIC) (Moraxella sp.): 1-2
- Range (MIC) ([3]; ATCC laboratory strains, n=6, in µg/mL): 1-16
- activity (in words) ([3]; laboratory strains, including MRSA): moderate activity
- Range (MIC) (Streptococcus sp. [4]): 16-32
- MIC50 (Bacteroides fragilis; Bacteroides fragilis): ≥ 128 µg/mL
- Range (MIC) (Bacteroides fragilis): ≧128^
- MIC50 (Enterococcus sp. [5]; Enterococcus, clinical isolates, n=8): 4 µg/mL (≈ 3.78 µM)
- Range (MIC) (Enterococcus sp. [5]; clinical isolates, n=8, in µg/mL): 1-8
- activity (in words) (Enterococcus sp. [5]; clinical strains): active
- MIC50 (Propionibacterium sp.): 4 µg/mL (≈ 3.78 µM)
- MIC50 (Pseudomonas sp.; Pseudomonas): > 64 µg/mL
- Range (MIC) (Pseudomonas sp.): > 64 µg/mL
- MIC50 (Streptococcus sp. [6]): 16 µg/mL (≈ 15.1 µM)
- MIC50 (C. clostridioforme): 4 µg/mL (≈ 3.78 µM)
- MIC90 (C. clostridioforme): > 1020 µg/mL
- MIC50 (C. innocuum): > 1020 µg/mL
- MIC90 (C. innocuum): > 1020 µg/mL
- MIC50 (C. paraputrificum; Clostridium paraputrificum): 8 µg/mL (≈ 7.56 µM)
- MIC90 (C. paraputrificum; Clostridium paraputrificum): 32 µg/mL (≈ 30.2 µM)
- Range (MIC) (C. paraputrificum): 0.062-64 ^ μg/mL
- MIC50 (C. perfringens; Clostridium perfringens): 0.062 µg/mL (≈ 0.0586 µM)
- MIC90 (C. perfringens; Clostridium perfringens): 0.062 µg/mL (≈ 0.0586 µM)
- Range (MIC) (C. perfringens; clinical isolates, n=14): 0.062 µg/mL
- MIC50 (C. ramosum): > 1020 µg/mL
- MIC90 (C. ramosum): > 1020 µg/mL
- MIC50 (Other Clostridium sp.): 32 µg/mL (≈ 30.2 µM)
- MIC90 (Other Clostridium sp.): 1020 µg/mL (≈ 968 µM)
- MIC50 [7]: 512 µg/mL (≈ 484 µM)
- MIC90 [7]: > 1020 µg/mL
- MIC50 (Veillonella sp.; Veillonella): 32 µg/mL (≈ 30.2 µM)
- MIC90 (Veillonella sp.; Veillonella): 128 µg/mL (≈ 121 µM)
- Range (MIC) (Veillonella sp.): 16 to 128 µg/mL
- MIC50 [8]: 1020 µg/mL (≈ 968 µM)
- MIC90 [8]: > 1020 µg/mL
- MIC50 [9]: 1 µg/mL (≈ 0.945 µM)
- MIC90 [9]: 32 µg/mL (≈ 30.2 µM)
- MIC50 [10]: 0.5 µg/mL (≈ 0.473 µM)
- MIC90 [10]: 2 µg/mL (≈ 1.89 µM)
- Range (MIC) [10]: 0.06 to 1024 µg/mL
- MIC50 (Streptococcus sp. [11]; Streptococcus): 32 µg/mL (≈ 30.2 µM)
- MIC90 (Streptococcus sp. [11]; Streptococcus): 128 µg/mL (≈ 121 µM)
- Range (MIC) (Streptococcus sp. [11]): 16 to 128 µg/mL
- MIC50 (Klebsiella sp.; Klebsiella): > 256 µg/mL
- MIC90 (Klebsiella sp.; Klebsiella): > 256 µg/mL
- Range (MIC) (Klebsiella sp.): >256 µg/mL
- MIC50 (Proteus mirabilis; Proteus mirabilis): > 256 µg/mL
- MIC90 (Proteus mirabilis; Proteus mirabilis): > 256 µg/mL
- Range (MIC) (Proteus mirabilis): >256 µg/mL
- MIC50 (Enterococcus sp. [12]; Enterococcus): 8 µg/mL (≈ 7.56 µM)
- MIC90 (Enterococcus sp. [12]; Enterococcus): 8 µg/mL (≈ 7.56 µM)
- Range (MIC) (Enterococcus sp. [12]): 0.5-16^ μg/mL
- MIC50 (Stephylococcus sp.): 0.5 µg/mL (≈ 0.473 µM)
- MIC90 (Stephylococcus sp.): 1 µg/mL (≈ 0.945 µM)
- Range (MIC) (Stephylococcus sp.): 0.25-2 ^ μg/mL
- MIC90 [13]: 0.062 to 0.25 µg/mL (≈ 0.0586 to 0.236 µM)
